Data taken from paper PMC7953826 (Nature cell biology, 2020).

Columns and labels:
hDyn2 = target: T1, hDyn2 (Homo sapiens, UniProt P50570); test: negative-stain EM, GTP-induced helix disassembly on actin bundles; format: binding; conditions: 1 mM GTP, with actin, room temperature, 30 min
T1 sequence (P50570 1-870): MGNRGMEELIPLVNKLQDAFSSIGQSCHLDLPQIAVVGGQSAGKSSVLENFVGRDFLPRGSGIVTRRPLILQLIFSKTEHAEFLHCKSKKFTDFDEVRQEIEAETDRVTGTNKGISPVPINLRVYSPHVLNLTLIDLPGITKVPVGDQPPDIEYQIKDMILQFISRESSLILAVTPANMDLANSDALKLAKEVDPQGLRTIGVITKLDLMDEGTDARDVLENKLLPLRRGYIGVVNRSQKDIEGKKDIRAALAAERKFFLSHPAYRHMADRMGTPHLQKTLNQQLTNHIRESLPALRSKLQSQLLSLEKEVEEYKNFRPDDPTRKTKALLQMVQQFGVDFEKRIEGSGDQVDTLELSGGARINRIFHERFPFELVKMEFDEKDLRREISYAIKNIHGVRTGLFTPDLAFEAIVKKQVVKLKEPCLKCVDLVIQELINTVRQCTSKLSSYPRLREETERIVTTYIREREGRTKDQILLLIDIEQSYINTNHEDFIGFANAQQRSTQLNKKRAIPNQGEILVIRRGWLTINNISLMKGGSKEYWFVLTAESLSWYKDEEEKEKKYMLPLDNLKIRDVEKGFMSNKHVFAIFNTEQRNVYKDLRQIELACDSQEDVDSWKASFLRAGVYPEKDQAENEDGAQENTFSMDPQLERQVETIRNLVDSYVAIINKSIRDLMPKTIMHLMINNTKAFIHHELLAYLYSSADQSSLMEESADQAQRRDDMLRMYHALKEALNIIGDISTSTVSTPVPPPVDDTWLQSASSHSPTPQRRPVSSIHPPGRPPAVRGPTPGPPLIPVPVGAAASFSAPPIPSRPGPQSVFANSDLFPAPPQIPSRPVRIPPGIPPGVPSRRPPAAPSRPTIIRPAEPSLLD

hDyn1 = target: T2, hDyn1 (Homo sapiens, UniProt Q05193); test: as above; format: binding; conditions: 1 mM GTP, with actin, room temperature, 30 min
T2 sequence (Q05193 1-864): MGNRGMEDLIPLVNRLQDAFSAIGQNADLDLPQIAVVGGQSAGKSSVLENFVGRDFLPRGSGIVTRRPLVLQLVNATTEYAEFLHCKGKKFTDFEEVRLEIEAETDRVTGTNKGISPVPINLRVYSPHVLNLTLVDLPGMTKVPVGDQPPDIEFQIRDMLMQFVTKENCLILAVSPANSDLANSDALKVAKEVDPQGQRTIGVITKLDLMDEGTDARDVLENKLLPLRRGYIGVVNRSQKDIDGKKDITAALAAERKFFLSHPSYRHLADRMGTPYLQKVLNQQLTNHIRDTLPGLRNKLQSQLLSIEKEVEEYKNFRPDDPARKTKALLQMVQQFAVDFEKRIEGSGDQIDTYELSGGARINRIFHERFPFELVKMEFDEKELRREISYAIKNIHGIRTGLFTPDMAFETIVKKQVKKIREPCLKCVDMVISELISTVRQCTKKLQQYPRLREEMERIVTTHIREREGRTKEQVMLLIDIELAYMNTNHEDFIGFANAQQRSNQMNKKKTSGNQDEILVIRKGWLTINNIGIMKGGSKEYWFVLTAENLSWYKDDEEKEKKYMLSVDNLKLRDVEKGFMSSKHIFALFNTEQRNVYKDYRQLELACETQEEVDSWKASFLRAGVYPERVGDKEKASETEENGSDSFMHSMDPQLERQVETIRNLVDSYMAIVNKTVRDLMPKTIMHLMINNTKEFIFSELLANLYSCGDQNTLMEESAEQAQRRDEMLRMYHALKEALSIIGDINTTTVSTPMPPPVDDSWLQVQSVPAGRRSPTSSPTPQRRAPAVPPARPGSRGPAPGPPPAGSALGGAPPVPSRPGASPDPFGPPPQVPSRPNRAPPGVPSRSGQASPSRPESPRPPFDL

Nc1nc2c(ncn2[C@@H]2O[C@H](COP(=O)(O)OP(=O)(O)OP(=O)(O)O)[C@@H](O)[C@H]2O)c(=O)[nH]1 [GTP]
negative-stain EM, GTP-induced helix disassembly on actin bundles (hDyn2): hDyn1 and hDyn2 helices along actin bundles were disassembled upon GTP addition | negative-stain EM, GTP-induced helix disassembly on actin bundles (hDyn1): hDyn1 and hDyn2 helices along actin bundles were disassembled upon GTP addition
